Measurements: patent US8252522B2, “Species detection methods and systems” (The Regents of the University of California, priority 2007, dated 2012)

Legend:
[1] = tested on: bacterial spores vs vegetative bacteria; conditions: microfluidic device, detection about few seconds after mixing
Method: (§1) A solution of a benzothiazole dye, THIA, was used (FIG. 1a), in a continuous-flow microfluidic device for detection of bacterial species, as described for a terbium (III) different emission assay.
(§2) For the steady-state experiments the dye is mixed with the samples and allowed to incubate for five minutes. In the microfluidic device, however, the dye is mixed with the bacterial sample and carried to the area for emission detection in about few seconds after the mixing.

[2] = tested on: bacterial spores; conditions: steady-state, incubated for five minutes
Method: as §1, §2

[3] = tested on: different bacteria (E. coli and two bacilli)
Method: Kinetics of fluorescence enhancement of 64 μM THIA in the presence of different bacteria (10^6 cell/mL) in TRIS buffer, pH=8.5 (λex=420 nm, λem=470 nm). The time constants, τ, are inversely proportional to the rate constants, k=1/τ. The biexponential data fits assume pseudo-first-order processes. At about 50 s into the data acquisition, the bacteria are injected and into a stirred solution of the dye.
To simplify the kinetic analysis, the assays can be conducted under two types of extreme conditions that will assure that the first step, k1, can be approximated to pseudo-first-order process: (1) the dye is in excess to the binding sites on the bacterial surface; or (2) the binding sites on the bacterial surface are in excess to the dye. Under such conditions, the kinetics of fluorescence enhancement should manifest bi- (or multi-) exponential rises:
[formula] where FM is the maximum fluorescence intensity (the saturation level on the curves); dt is the injection time; Fi are the pre-exponential coefficients; and ti are the time constants for the various processes: τi=1/ki. […]
The samples are illuminated at a region where the staining dye absorbs and the emission is monitored (the fluorescence intensity is recorded every second) at the wavelength maximum of the fluorescence spectrum of the dye (FIG. 2). […] This plateau emission maximum is what is measured with the regular staining procedures. […]

[4] = tested on: bacterial spores; conditions: within the duration of the mixing

## CCN1/C(=C/c2sc3ccccc3[n+]2CC)Sc2ccccc21.[I-] [THIA, 3,3′-Diethylthiacyanine iodide]
[1]
  signal from bacterial spores relative to signal from vegetative bacteria: about 13 times
[2]
  increase in emission intensity in the presence of bacterial spores: about an order of magnitude increase
[3]; all three species
  response to staining: positive response
[3]; vegetative bacteria
  duration of the emission intensity increase after initial mixing: continues to increase for several minutes
[4]
  time of emission enhancement by bacterial spores: within a second or less
